Two compounds from paper PMC8002023, “3D Pharmacophore-Based Discovery of Novel KV10.1 Inhibitors with Antiproliferative Activity” (Cancers, 2021) can be followed below.

Like-named read-outs stand apart in the source and are kept apart here.

What all share (type): cell-based
Assay [1] addresses T1, KV10.1 (Homo sapiens, UniProt O95259).
T1 construct: expressed in transfected cells
T1 sequence (O95259 1-962 isoform O95259-2): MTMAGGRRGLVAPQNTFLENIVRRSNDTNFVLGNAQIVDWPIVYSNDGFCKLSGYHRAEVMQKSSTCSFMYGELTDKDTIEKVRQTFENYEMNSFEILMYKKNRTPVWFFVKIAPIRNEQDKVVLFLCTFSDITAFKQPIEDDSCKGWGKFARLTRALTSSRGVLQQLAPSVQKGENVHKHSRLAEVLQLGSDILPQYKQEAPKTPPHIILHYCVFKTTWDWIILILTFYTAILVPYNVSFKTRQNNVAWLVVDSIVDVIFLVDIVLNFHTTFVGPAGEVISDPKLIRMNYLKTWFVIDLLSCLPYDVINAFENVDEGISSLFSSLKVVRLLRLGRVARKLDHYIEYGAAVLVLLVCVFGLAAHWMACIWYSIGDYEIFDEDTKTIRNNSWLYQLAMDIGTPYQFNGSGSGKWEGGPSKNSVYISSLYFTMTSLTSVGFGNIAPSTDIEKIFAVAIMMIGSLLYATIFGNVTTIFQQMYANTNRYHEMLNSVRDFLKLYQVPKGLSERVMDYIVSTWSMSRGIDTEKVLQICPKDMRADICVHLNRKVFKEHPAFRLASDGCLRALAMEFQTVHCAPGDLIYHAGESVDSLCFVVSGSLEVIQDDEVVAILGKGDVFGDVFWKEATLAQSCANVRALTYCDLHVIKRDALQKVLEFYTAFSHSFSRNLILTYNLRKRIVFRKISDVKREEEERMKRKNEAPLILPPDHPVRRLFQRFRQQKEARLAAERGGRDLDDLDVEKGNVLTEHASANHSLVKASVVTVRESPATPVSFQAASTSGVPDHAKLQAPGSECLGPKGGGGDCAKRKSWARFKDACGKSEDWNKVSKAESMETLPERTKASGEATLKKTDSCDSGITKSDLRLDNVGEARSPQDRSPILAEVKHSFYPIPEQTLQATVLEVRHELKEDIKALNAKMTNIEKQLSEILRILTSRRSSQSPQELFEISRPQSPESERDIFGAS
Description: Whole-cell patch clamp on HEK-293 cells stably expressing KV10.1. Particulars: HEK293; 10 μM; mean ± standard error (or range).

Assay [2] has as its target T1, KV10.1. The description is as above. The method, then:
Whole-cell patch clamp experiments were performed on stably transfected HEK-293 cells. The cells were grown on fibronectin-coated glass coverslips in DMEM supplemented with 10% FCS and 300 µg/mL Zeocin. Experiments were performed at room temperature under continuous perfusion. The extracellular solution contained (mM) 160 NaCl, 2.5 KCl, 2 CaCl2, 1 MgCl2, 10 Hepes/NaOH, pH 7.4, 8 glucose. For the experiments determining conductance–voltage relationships, tail currents were made visible by substituting 60 mM NaCl by KCl ([…], 100 NaCl). Pipettes were pulled from #1 glass capillaries (WPI) to resistances of 1–3 MΩ when loaded with the intracellular solution (100 KCl, 45 N-methyl-D-glucamine, 10 1,2-bis(o-aminophenoxy)ethane-N,N,N′,N′-tetraacetic acid (BAPTA), 10 Hepes pH 7.35). Data acquisition was performed using a EPC10 Plus amplifier (HEKA Elektronik) and Patch Master software. Drug application was performed using an 8-channel fast solution exchanger (ALA). All compounds were dissolved in DMSO to a final concentration of 10 mM. 0.5% DMSO in extracellular solution served as control. KV10.1 currents were elicited by 500 ms depolarisations to +40 mV under continuous perfusion with the compound-containing or control solution. hERG current amplitudes were measured as the peak tail current during a 4 s repolarization to −40 mV after a depolarising pulse to +20 mV lasting for 2 s.
The nine selected in silico hits were tested by manual patch-clamp on a HEK293 cell line stably expressing KV10.1 [33] at a compound concentration of 50 μM (Table 1). Compound activity was tested by determining the current amplitude elicited by repetitive stimuli to +40 mV from a holding potential of −80 mV. […] The hit compound ZVS-08 represents a new structural class of KV10.1 inhibitors with diarylamine structure and has a unique structure among the acquired virtual screening hits. […] The most notable change from the purpurealidin analogues is the replacement of the hydrogen bond acceptor group of the amide bond with the oxygen atom of the nitro group of ZVS-08.

The test system of the next assay is Colo357 tumour spheroids. Description: Apoptosis (caspase 3/7 reporter) in tumour spheroids. Particulars: 50 µM, caspase reporter fluorescence over 72 h, 8.9 µM cycloheximide as sensitizer. The method, then:
Spheroids were cultured in round bottom ultra-low attachment 96-well plates (Corning) at a density of 5000 cells/well in 2% Matrigel (Corning) and centrifuged at 1000× g for 10 min. Spheroid formation was monitored continuously in the Incucyte system and treatments were added once spheroids were formed. As apoptosis sensitizer, 8.9 µM cycloheximide was added to controls and treated spheroids. Caspase 3/7 green reagent (Sartorius; 1:1000) was used as recommended by the manufacturer. Caspase 3/7 reagent substrate crosses the cell membrane and its cleavage by activated caspase-3/7 results in the release of a DNA dye and fluorescent staining of nuclear DNA.
To test the ability of the compounds to inhibit tumour progression in a more predictive system, we performed experiments on tumour spheroids of the pancreatic cancer cell line Colo357, which grows efficiently in this culture modality. The cells were seeded in the presence of Matrigel (see methods), allowed to form spheroids, and the compounds (50 µM) were added to the growth medium. The control contained the same amount of the vehicle (0.5% DMSO). Apoptosis was monitored by addition of a fluorescent […] activity reporter at the same time as the compounds. Cleavage of the reporter by caspase results in green florescence, and the intensity of the fluorescence was recorded over 72 h.

[3] abbreviates: HEK-293, 500 ms depolarisation to +40 mV, read-out: IC50 Kv10.1.

The term inhibition denotes how much of the control response was suppressed. One may read the IC50 as the concentration at which inhibition is half-maximal.

In turn, `O=[N+]([O-])c1cc(C(F)(F)F)ccc1Nc1ccc(OCC(O)CN2CCOCC2)cc1` (stereo not drawn) [Compound 8] showed an inhibition at 10 µM at KV10.1 [1] of 81.2 ± 4.97%. Also, on KV10.1 [2] (setting [3]), the concentration for half-maximal inhibition (IC50) was 1.01 µM. Moreover, in the assay with Colo357 tumour spheroids, the “apoptosis induction in tumour spheroids” value is reported as “apoptosis statistically significant over the control starting only after 24 h”.

Turning to `CN(C)CC(O)COc1ccc(Nc2ccc(C(F)(F)F)cc2[N+](=O)[O-])cc1` (stereo not drawn) [ZVS-08], the inhibition at 50 µM at KV10.1 [2] (HEK293, compound concentration 50 μM, stimuli to +40 mV, mean ± standard error, read-out: Effect on Kv10.1 (% Inhibition)) amounted to 80.27 ± 0.63%. The 50% inhibitory concentration (IC50) on KV10.1 [2] (setting [3]) was found to be 3.7 µM; on KV10.1 [2] (same IC50 in presence and absence of 500 nM astemizole, end of 500 ms pulse to +40 mV, read-out: IC50 Kv10.1, competition with astemizole), 1.69 µM; at KV10.1 [2] (same IC50 in presence and absence of 1 µM mibefradil, end of 500 ms pulse to +40 mV, read-out: IC50 Kv10.1, competition with mibefradil), 1.47 µM. For the same compound, the “semi-maximal activation (conductance–voltage relationship)” value on KV10.1 [2] (in the presence of 5 µM ZVS-08, 4.39 ± 1.9 mV in the absence) is −29.88 ± 1.8 mV. Further, in the assay on Colo357 tumour spheroids, the “apoptosis induction in tumour spheroids” value is “induced apoptosis efficiently starting very early”.
